# Test results published in PMC11052790 (Clinical Pharmacokinetics, 2024).
# Marks after values point to notes of the source that are not given here.
# Legend:
# CYP3A4 = CYP3A4 activity time course with microdosed oral midazolam
# CYP2C19 = CYP2C19 (Homo sapiens, UniProt P33261); conditions: after ritonavir discontinuation vs baseline
# [1] = with ketoconazole vs alone, previous trial EudraCT 2017-004453; cited from earlier work
# [2] = healthy volunteers, 6 days of high-dose ritonavir 600 mg bid; cited from earlier work
# [3] = fifth day of ritonavir 100 mg bid vs before ritonavir; 8 healthy volunteers
# [4] = Ritonavir plasma exposure during 5-day 100 mg bid therapy; type: in vivo, human
# CYP2C19, sequence (P33261 whole entry): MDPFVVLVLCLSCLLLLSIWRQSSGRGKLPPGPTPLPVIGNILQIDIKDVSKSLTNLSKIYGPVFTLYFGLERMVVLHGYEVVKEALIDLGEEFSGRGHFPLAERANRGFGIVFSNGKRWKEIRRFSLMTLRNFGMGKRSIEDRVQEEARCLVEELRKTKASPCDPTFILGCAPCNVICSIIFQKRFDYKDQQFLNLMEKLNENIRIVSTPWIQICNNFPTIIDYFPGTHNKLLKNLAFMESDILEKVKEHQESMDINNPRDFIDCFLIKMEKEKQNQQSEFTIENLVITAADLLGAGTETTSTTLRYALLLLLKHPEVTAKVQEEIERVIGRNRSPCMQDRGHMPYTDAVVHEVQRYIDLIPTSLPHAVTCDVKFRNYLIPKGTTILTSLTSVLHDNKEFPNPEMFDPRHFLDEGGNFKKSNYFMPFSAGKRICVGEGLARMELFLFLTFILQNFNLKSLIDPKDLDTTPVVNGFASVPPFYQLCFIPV
structure (smiles),measurement,setting,value
"Cc1ncc2n1-c1ccc(Cl)cc1C(c1ccccc1F)=NC2 [Midazolam, midazolam]","Midazolam AUC2–4 increase, times baseline values",CYP3A4; from day 2 to day 5 of ritonavir treatment,11.1–15.5 times baseline
"COc1ccc2[nH]c([S+]([O-])Cc3ncc(C)c(OC)c3C)nc2c1 (stereo not drawn) [Omeprazole, omeprazole]",Decrease of omeprazole AUC0–4,CYP2C19,approximately 35%
"O=C(NC[C@H]1CN(c2ccc(N3CCOCC3=O)cc2)C(=O)O1)c1ccc(Cl)s1 [Rivaroxaban, rivaroxaban]",AUCinf ratio,[1],2.37 ± 0.53
same,Exposure (AUC) increase of rivaroxaban,[2],2.5 fold
same,Geometric mean ratio (GMR) AUC0–24,[3],1.87*
CC(C)c1nc(CN(C)C(=O)N[C@H](C(=O)N[C@@H](Cc2ccccc2)C[C@H](O)[C@H](Cc2ccccc2)NC(=O)OCc2cncs2)C(C)C)cs1 [ritonavir],AUC(0-t),"[4]; human, plasma, oral, 100 mg",4590 to 5330 ng·h/mL
same,Cmax,"[4]; human, plasma, oral, 100 mg, Cmax of ritonavir, remaining 4 days of 100 mg bid",1780 to 2110 ng/mL
same,Ritonavir plasma concentrations,"[4]; two days after the last ritonavir dose, LLOQ 10 ng/mL",close to or below the LLOQ
same,Estimated time to full recovery of CYP3A4 activity,CYP3A4; after a 5-day treatment course with ritonavir 100 mg bid,10 to 12 days
